Broadly, the inhibition is the relative decrease from the control value, in per cent.

These results are taken from ChEMBL document CHEMBL2094260, “Malaria Box Tuberculosis Screening Data”.

The subject of assay [1] is Mycobacterium tuberculosis. The assay can be described thus: MMV: Screen against Mtb, single point, non replicating, at 25uM. The assay is classed as functional.
Assay [2] relates to Mycobacterium tuberculosis. The assay can be described thus: MMV: Screen against Mtb, single point, replicating, at 25uM. The assay is classed as functional.

`Fc1ccc2[nH]c3c(NCCCN4CCOCC4)ncnc3c2c1`: the results for the inhibition at 25 µM in assay [1] and in assay [2] were 13.8% and 13.6%, respectively.
Consider `c1ccc2c(NCCCCCCNc3c4c(nc5ccccc35)CCCC4)c3c(nc2c1)CCCC3`, for which the figures for the inhibition at 25 µM in assay [1] and in assay [2] were 17.8% and 32.7%, respectively.
The like results for `COc1ccc(CN2CCN(Cc3ccccc3)CC2)c(O)c1` were, in that order, -5.78% and 0.392%.
Taken in the same sequence, the figures for `COc1ccc(C(=O)NC(c2ccccc2Cl)c2cc(Cl)c3cccnc3c2O)cc1` (configuration not stated) were 5.04% and 10.6%.
Consider `CCOc1c(Cl)cc(CNCC(O)c2ccccc2)cc1OC` (configuration not stated), for which the figures for the inhibition at 25 µM in assay [1] and in assay [2] were 6.97% and 11.9%, respectively.
The like results for `COc1ccc(N2CCN(C(CNC(=O)CC(C)(C)C)c3ccc4c(c3)OCO4)CC2)cc1` (configuration not stated) were, in that order, -8.45% and 0.0784%.
The like results for `COc1ccc(-n2ccnc2SCC(=O)Nc2cc(C)ccc2C)c(OC)c1` were, in that order, 8.89% and 2.95%.
As for `CC1CCCCN1CCCNC(=O)c1ccc2c(c1)sc1nc(-c3ccc(F)cc3)cn12` (configuration not stated), the results for the inhibition at 25 µM in assay [1] and in assay [2] were 9.76% and 33.2%, respectively.
With `CN1c2ccccc2N(C)C1c1ccc2c(c1)OCO2`, the figures for the inhibition at 25 µM in assay [1] and in assay [2] were 14.5% and 9.63%, respectively.
As for `COc1ccc(-c2nonc2NC(=O)c2cccc(C)c2)cc1OC`, the values for the inhibition at 25 µM in assay [1] and in assay [2] were -4.72% and 3.1%, respectively.
Taken in the same sequence, the figures for `Oc1ccccc1CNCC12CC3CC(CC(C3)C1)C2` were 18.7% and 49.7%.
The like results for `CCOC(=O)c1cn(CC)c2cc(N(C)CCc3ccc(OC)c(OC)c3)c(F)cc2c1=O` were, in that order, 11.9% and 14.8%.
Taken in the same sequence, the figures for `CCOc1c(Cl)cc(CNC(C)C(O)c2ccccc2)cc1OC` (configuration not stated) were 10.3% and 12.7%.
For the molecule `Oc1c(CN2CCN(c3ccccc3F)CC2)cc(Br)c2cccnc12`, the inhibition at 25 µM in assay [1] was 30.2%; in assay [2] it was 21.8%.
Consider `O=C1CC(O)(C(F)(F)C(F)(F)F)Oc2ccccc21` (configuration not stated), for which the figures for the inhibition at 25 µM in assay [1] and in assay [2] were 39.1% and 13%, respectively.
As to `CCOc1ccc(CN2CCN(CC(O)COc3ccc(OCC(O)CN4CCN(Cc5ccc(OCC)cc5)CC4)cc3)CC2)cc1` (configuration not stated), the inhibition at 25 µM in assay [1] came out at 17.5%; in assay [2], 13.2%.
Take `CCOC(=O)C1=CN(C)C=C(C(=O)OCC)C1c1cc(Br)c(OCC)c(OC)c1`: the inhibition at 25 µM is 10.7% in assay [1] and -1.96% in assay [2].
Taken in the same sequence, the figures for `CCCOCc1cc(CN2CCN(c3cccc(Cl)c3)CC2)c(O)c2ncccc12` were 1.85% and 5.25%.
Turning to `Cc1ccc(F)cc1NC(=O)c1cc(Cl)ccc1Nc1ccccc1`, the inhibition at 25 µM in assay [1] amounted to 28.5%; in assay [2] it was 6.66%.
Taken in the same sequence, the figures for `CCOc1ccc(-c2nc(NC(=O)c3cccc(S(C)(=O)=O)c3)sc2C)cc1` were 11.7% and 54.3%.
For the molecule `CC1CC2=C(CC1CNCCCN(C)C)C(C)(C)CCC2` (configuration not stated), the inhibition at 25 µM in assay [1] was -0.993%; in assay [2] it was 42.2%.
The like results for `Cc1cc(C=C2SC(=Nc3ccccc3)N(C3CCCC3)C2=O)c(C)n1-c1ccc(Cl)cc1` were, in that order, -1.41% and 2.04%.
Taken in the same sequence, the figures for `COc1cc(C(=O)Nc2nc3c(cc4c5c(cccc53)CC4)s2)cc(OC)c1OC` were 17.8% and -3.53%.
The like results for `Cc1ccccc1OCCSc1nc2ccc(NC(=O)c3ccccc3)cc2s1` were, in that order, 9.66% and 22%.
As for `O=C1c2ccccc2-c2nnc(-c3ccc(Br)cc3)cc21`, the inhibition at 25 µM amounted to 1.49% in assay [1] and 9.33% in assay [2].
The like results for `c1ccc(-c2ccc(-c3nc4ccccc4[nH]3)cc2)cc1` were, in that order, 0.513% and 20.6%.
Turning to `COc1ccc(C2c3ccc4ccccc4c3Oc3ncn(CCCn4ccnc4)c(=N)c32)cc1OC` (configuration not stated), the figures for the inhibition at 25 µM in assay [1] and in assay [2] were 11.1% and 46.8%, respectively.
Regarding `Cc1cccc(N2C(=O)C3C(C2=O)C2(c4ccccc4)C(=O)C3(c3ccccc3)C(c3ccc4c(c3)OCO4)=C2c2ccc3c(c2)OCO3)c1` (configuration not stated), the inhibition at 25 µM in assay [1] worked out at 16.4%; in assay [2] it was 23.1%.
The like results for `Cc1ccc(CN2CCC(C(=O)Nc3ccc(-c4cc5ccccc5[nH]4)cc3)CC2)o1` were, in that order, 22.9% and 8.26%.
Turning to `COc1ccccc1C(=O)ON=C(N)Cc1cccc2ccccc12`, the inhibition at 25 µM in assay [1] came out at 32.7%; in assay [2] it was 52.3%.
Taken in the same sequence, the figures for `Cc1cc(=O)oc2c1ccc1oc(C(=O)c3ccccc3)c(C)c12` were 21.4% and 13.4%.
Taken in the same sequence, the figures for `FC(F)(F)c1ccc(Nc2nnnc3ccccc23)cc1` were 31.2% and 44.2%.
The like results for `Cc1cc(NC(=O)c2cccc(C(F)(F)F)c2)n(-c2nc(-c3ccc4c(c3)OCO4)cs2)n1` were, in that order, 3.48% and 5.83%.
On to `OC1CCCCC1C1(NC(=S)Nc2ccccc2)CCCCC1` (configuration not stated), for which the inhibition at 25 µM in assay [1] was 13.9%; in assay [2], 7.76%.
The like results for `O=C(NCC1Cc2cccc(-c3ccncc3)c2O1)c1csc2c1CCCC2` (configuration not stated) were, in that order, 5.92% and 14.2%.
Taken in the same sequence, the figures for `CCCCNc1nc(NC(C)(C)C)nc(NC(C)(C)C)n1` were 42.1% and 32.8%.
Taken in the same sequence, the figures for `COc1ccc(Nc2nc(N/N=C/c3ccc(O)cc3)nc(Nc3ccc([N+](=O)[O-])cc3)n2)cc1` were 31.8% and 15.3%.
For `COc1ccc(-c2cn3c(C(=O)Nc4ccccc4Cl)c(-c4ccccc4)c4c3n2CCCC4)cc1`, the inhibition at 25 µM in assay [1] was 2.56%; in assay [2] it was 8.39%.
With `O=[N+]([O-])c1ccc(C=NNc2nc3ccccc3[nH]2)cc1`, the inhibition at 25 µM in assay [1] amounted to 16.2%; in assay [2] it was 16.3%.
The like results for `O=c1nc(C=Cc2ccc(Cl)cc2)oc2ccccc12` were, in that order, 7.84% and 46.8%.
Taken in the same sequence, the figures for `CC(C)(C)C(=O)Nc1ccc(C(=O)Nc2cccc(-c3nc4ccccc4[nH]3)c2)cc1` were 8.19% and 10.8%.
For `Oc1ccc(C(=C(Cl)Cl)c2ccc(O)cc2)cc1`, the inhibition at 25 µM turned out to be 0.782% in assay [1] and 9.95% in assay [2].
For `CCN1CCN(c2cc(C)c3cc(NC(=O)c4ccc(OC)c(OC)c4)ccc3n2)CC1`, the inhibition at 25 µM in assay [1] was determined as 12.7%; in assay [2] it was 14.8%.
In the case of `CN(C)c1ccc(C=Cc2nc(=O)c3ccccc3o2)cc1`, the inhibition at 25 µM in assay [1] stood at 20.4%; in assay [2], 11.9%.
Taken in the same sequence, the figures for `COc1cccc(-c2nn(C)c3sc(C(=O)NCCN4CCN(c5ccccc5F)CC4)cc23)c1` were 14.8% and 29.5%.
In the case of `COc1cc(-c2nc(-c3ccc(Sc4ccccc4)cc3)c(-c3ccccc3)[nH]2)cc(OC)c1O`, the values for the inhibition at 25 µM in assay [1] and in assay [2] were 13.6% and 16.5%, respectively.
As for `COc1ccc2c(c1OC)C(=O)N1c3ccccc3N=C(c3ccc(C)cc3)CC21` (configuration not stated), the inhibition at 25 µM in assay [1] was 15.2%; in assay [2], 4.94%.
Consider `c1ccc(/C2=N/c3ccccc3/N=C(/c3ccccc3)c3ccccc32)cc1`, for which the inhibition at 25 µM in assay [1] was determined as 23.5%; in assay [2], 22.3%.
With `CC1CN(C(=O)c2sc3ccccc3c2Cl)CC(C)O1` (configuration not stated), the inhibition at 25 µM in assay [1] was determined as 22.9%; in assay [2], 15.5%.
Turning to `CCc1ccc(Nc2cc(C)nc3nc(C)nn23)cc1`, the inhibition at 25 µM in assay [1] is 9.06%; in assay [2], 11.4%.
The like results for `Cc1ccc(C)c(-c2csc(Nc3ccc(C)c(C)c3)n2)c1` were, in that order, 9.48% and 12.5%.
`COc1cccc(O)c1CN1CCC2(CCCN(Cc3ccc(F)cc3)C2)C1` (configuration not stated): the inhibition at 25 µM in assay [1] turned out to be 16.4%; in assay [2] it was 18%.
On to `CCC(c1ccccc1)c1nn2c(-c3cccs3)nnc2s1` (configuration not stated), for which the inhibition at 25 µM in assay [1] worked out at 20.8%; in assay [2], 19.3%.
The like results for `Cc1ccc(-c2cc3c(nn2)-c2ccccc2C3=O)cc1` were, in that order, 17.3% and 41.8%.
Taken in the same sequence, the figures for `CCCCOc1ccc(C(=O)Nc2cc(C)on2)cc1` were 15% and 23.1%.
Taken in the same sequence, the figures for `CCOc1ccc(Nc2c3ccccc3nc3ccccc23)cc1` were 15.9% and 51.8%.
As to `CCOc1c(Br)cc(C2C(C(=O)OC)=CN(C)C=C2C(=O)OC)cc1OC`, the inhibition at 25 µM was determined as 14.1% in assay [1] and 7.76% in assay [2].
Taken in the same sequence, the figures for `CC(=O)c1sc(NC(=O)Nc2ccc(C)cc2C)nc1C` were 6.64% and 10.3%.
The like results for `CCN(CC)CCNc1ncnc2c1[nH]c1ccc(Cl)cc12` were, in that order, 18.1% and 15.4%.
Taken in the same sequence, the figures for `CC1CC(C)CN(C(=O)c2ccc(Cl)cc2Cl)C1` (configuration not stated) were 9.59% and 14.8%.
Turning to `COc1ccc2nc(C)cc(Nc3cccc(O)c3)c2c1`, the inhibition at 25 µM amounted to 8.19% in assay [1] and 7.96% in assay [2].
As to `COc1ccc(-c2nc(N3CCN(C(=O)C4CCCCC4)CC3)c3c4c(sc3n2)CCCC4)cc1`, the inhibition at 25 µM in assay [1] is 12.7%; in assay [2], 14.2%.
The like results for `O=C(NCc1ccco1)C1CCN(S(=O)(=O)c2ccc(Br)cc2)CC1` were, in that order, 10.5% and 13%.
The like results for `Clc1ccc2[nH]c3c(NCCCN4CCOCC4)ncnc3c2c1` were, in that order, 21.6% and 16.2%.
Regarding `COc1ccc2c(c1)C1(Nc3ccccc3-c3nc4ccccc4n31)C(=O)N2` (configuration not stated), the inhibition at 25 µM in assay [1] turned out to be 10.8%; in assay [2], 0.517%.
The like results for `Cn1c(=O)n(C)c2cc(CNCCNc3ccnc4cc(Cl)ccc34)ccc21` were, in that order, 8.95% and 11.4%.
